From patent US20160115167A1, “BMP INHIBITORS AND METHODS OF USE THEREOF” (THE BRIGHAM AND WOMEN'S HOSPITAL, INC., priority 2013, published 2016)

Test system: BMP7 induced pSMAD1/5/8 in BMPR2−/− and TGF-β1 induced pSMAD2
Experiment: Western blot, BMP7 vs TGF-beta induced pSMAD in PASMCs
Assay type: cell-based, mice
Conditions: versus LDN-193189; BMPR2-deficient and wild type PASMCs; FIGS. 5b and 5c
Method: C2C12 […] cells stably transfected with BMP responsive element from the Idl promoter fused to luciferase reporter gene (BRE-Luc) and human embryonic kidney 293T cells stably transfected with the TGF-β responsive element from the PAI-1 promoter fused to luciferase reporter gene (CAGA-Luc) were cultured in DMEM (Life Technologies) supplemented with 10% FBS, L-glutamine, and pen/strep at 37° C. and 10% CO2. HepG2 human hepatoma cells (ATCC) were cultured in EMEM (Life Technologies) supplemented with 10% FBS, L-glutamine, and pen/strep at 37° C. and 10% CO2. C2C12 […] (ATCC) were cultured in DMEM (Life Technologies) supplemented with 10% FBS, L-glutamine, and pen/strep at 37° C. and 10% CO2. […]
Both WT and BMPR2^del/del PASMCs were seeded in 12-well plates (Falcon®; BD Biosciences) at 75% confluency (˜375,000 cells in 480 μL per well). […] The phosphorylation state of downstream effector proteins (pSMAD1/5/8 and pSMAD2 for BMP and TGF-β respectively) was measured by western blotting performed 30 minutes after ligand stimulation. Western blots were analyzed using ImageJ with positive controls at 100% ligand induced phospho-SMAD and negative controls being subtracted as background. […]

For `c1cc(-c2cnn3cc(-c4ccc(N5CCNCC5)cc4)cnc23)c2cccnc2c1` [LDN-212854], the “selectivity, BMP7 induced pSMAD1/5/8 versus TGF-β1 induced pSMAD2” value was “improved selectivity”.
